“Also recorded” adds a separate entry of the source.
Legend:
p38β = molecular target: T1, p38β (Homo sapiens, UniProt Q15759); assay: DSF, binding to p38β; settings: DSF melting temperature, concentration series
T1 construct: HA (N); made in house; host or cells: E. coli BL21

[1] = system: IL-8-directed neutrophil TEM through HMVECLs; assay: Neutrophil transendothelial migration (TEM) assay; assay type: cell-based, human; settings: 10 μM, HMVECLs preincubated at 39.5° C. for 6 h
[2] = system: p38-dependent phosphorylation of MK2 and Stat-1 in HeLa cells; assay: Inhibition of substrate phosphorylation (immunoblot); assay type: cell-based, human; settings: 10 μM SB203580 or 50 μM UM101 for 30 min
From the text: Cell extracts prepared in RIPA buffer containing protease and phosphatase inhibitors were resolved by SDS-PAGE, transferred to PVDF membrane, blocked with 5% nonfat dry milk, probed with primary antibodies against phosphorylated MK2 and Stat-1, and total p38α as a loading control. Bands were detected using secondary antibodies conjugated to infrared fluorophores and infrared fluorescence imaging (Odyssey; LICOR).

[3] = system: LPS/hyperthermia-induced ALI in CD1 mice; assay: Mouse i.t. LPS/FRH-induced acute lung injury model; settings: single i.p. injection of 100-1000 μg UM101, 1000 μg UM60 or 1000 μg SB203580, 30 min before i.t. 50 μg LPS and hyperthermia

T1 sequence (Q15759 whole entry): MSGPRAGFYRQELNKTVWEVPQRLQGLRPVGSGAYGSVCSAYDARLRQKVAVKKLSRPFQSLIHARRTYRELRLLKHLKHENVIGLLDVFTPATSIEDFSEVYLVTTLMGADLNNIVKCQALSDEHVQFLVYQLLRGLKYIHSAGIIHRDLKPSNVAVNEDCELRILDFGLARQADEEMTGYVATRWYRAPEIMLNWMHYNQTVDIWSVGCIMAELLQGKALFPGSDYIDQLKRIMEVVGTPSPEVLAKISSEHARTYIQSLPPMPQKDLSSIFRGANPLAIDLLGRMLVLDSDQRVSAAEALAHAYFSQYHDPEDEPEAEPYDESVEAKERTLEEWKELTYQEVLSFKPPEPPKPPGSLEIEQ

## C[S+]([O-])c1ccc(-c2nc(-c3ccncc3)c(-c3ccc(F)cc3)[nH]2)cc1 (centres unmarked) [SB203580, reference compound]
p38β
  stabilization of p38β in DSF (binding), in words: stabilized both p38α and p38β
[1]
  reduction of hyperthermia-augmented neutrophil TEM: 84%
[2]
  anisomycin-stimulated phosphorylation of MK2, in words: failed to completely block MK2 phosphorylation; also recorded: reduced
  anisomycin-stimulated phosphorylation of Stat-1, in words: reduced
[3]
  mice that died within 24 h: one of six

Source: patent US11911393B2, “Non-catalytic substrate-selective p38alpha-specific MAPK inhibitors with endothelial-stabilizing and anti-inflammatory activity, and methods of use thereof” (University of Maryland, Baltimore, priority 2016, dated 2024)
